Like-named read-outs stand apart in the source and are kept apart here. Each block holds one compound with its values, some of them ahead of it.
Columns and labels:
Type in all cases: in vivo, BALB/c nude mice
[1] = Example 7 pharmacokinetics assay for efficacy study (plasma, liver); conditions: mouse, po, 100 mg/kg, p.o., QD × 14 days
Protocol: For efficacy study, agents were tested in the A375 human melanoma xenografts. Compound 118, Compound 156, and Compound 180 were administered to BALB/c nude mice bearing A375 xenografts from day 0 and dosed p.o. twice per day (BID). Compound 141 was administered from day 0 and dosed p.o. twice per day (BID) or dosed p.o. daily (QD) from day 1. Compound 141, Compound 118, Compound 156, and Compound 180 were dosed at 10 mg/kg for 14 days. The known BRAF inhibitor Dabrafenib was used as a positive control. Dabrafenib was administered from day 1 and dosed p.o. daily (QD) for 14 days and dosed at 100 mg/kg.
(§1) The plasma samples were collected at predetermined time points for PK analysis. The mice were euthanized at predetermined time points post the treatment. The blood samples were collected into the 1.5 mL Eppendorf tubes containing 15 μL of 0.5 M EDTA-K2. And then the anticoagulant blood samples were centrifuged at 2,500 g at 4° C. for 15 minutes. The plasma samples were separated into 2 aliquots. The 1st was used for PK analysis, and the 2nd served as backup. The samples were stored at −80° C. before bioanalysis.
(§2) Liver samples were collected at predetermined time points for PK analysis. The left lobe of the liver was dissected out and split into 2 parts. The 1st part was used for PK analysis and the 2nd part served as the backup for the study. The samples were transferred into pre-labeled tubes and quickly froze in liquid nitrogen within 2 minutes after dissection. The samples were stored at −80° C. before bioanalysis.
The harvested plasma and liver samples were processed for pharmacokinetics analysis by LC-MS/MS with a concentration range of 0.500~500 ng/mL for Dabrafenib in plasma and liver homogenate, 20.0~20,000 ng/mL for Compound 141, Compound 180 and Compound 118 in plasma and liver, 10.0~10,000 ng/mL for Compound 156 in plasma and liver.

[2] = Example 9 pharmacokinetics assay for the PK and PD study Part I, II and III (plasma, tumor, liver); conditions: mouse, po, 100 mg/kg, p.o., single dose, ± SEM
Protocol: For the PK and PD study Part I, agents were administered to BALB/c nude mice bearing A375 human melanoma xenografts tumors. Dabrafenib, Compound 218 and Compound 157 were dosed via p.o. once on day 1. Dabrafenib was dosed at 100 mg/kg. Compound 218 and Compound 157 were dosed at 10 mg/kg.
For the PK and PD study Part II, agents were administered to BALB/c nude mice bearing A375 human melanoma xenografts tumors. Compound 133, Compound 144 and Compound 198 were dosed at 10 mg/kg via p.o. once on day 1.
For the PK and PD study Part III, agent was administered to BALB/c nude mice bearing A375 human melanoma xenografts tumors. Compound 204 were dosed at 10 mg/kg via p.o. once on day 1.
as §1
The tumor samples were collected at predetermined time points for PK and WB analysis. The tumor was dissected out and split into 3 parts. The 1st part was used for PK analysis, the 2nd part was used for WB analysis and the last one served as backup for study. The samples were transferred into pre-labeled tubes and quickly froze in liquid nitrogen within 2 minutes after dissection. The samples were stored at −80° C. before bioanalysis.
as §2
The harvested plasma, tumor and liver samples were processed for pharmacokinetics analysis by LC-MS/MS with a concentration range of 5.00-10,000 ng/mL for Compound 218, Compound 157 and Compound 133 in plasma, 0.500-1,000 ng/ml for Compound 218 in liver and tumor homogenate, 0.200-400 ng/mL for Compound 157, Dabrafenib and Compound 133 in liver and tumor homogenate, 0.500-1000 ng/mL for Dabrafenib and Compound 204 in plasma, 0.200-200 ng/mL for Compound 204 in liver and tumor homogenate, 20.0-20,000 ng/mL for Compound 144 and Compound 198 in plasma, 1.00-1,000 ng/mL for Compound 144 and Compound 198 in liver and tumor homogenate.

[3] = tested on: A375 human melanoma xenografts; assay: Example 8 efficacy study in A375 human melanoma xenografts (tumor volume, T/C, TGI); conditions: 35 mg/kg, p.o., QD × 21 days
Protocol: For efficacy study, agents were tested in the A375 human melanoma xenografts model. Compound 8, Compound 26, and Compound 38 were administered to BALB/c nude mice bearing A375 xenografts from day 0 and dosed p.o. twice per day (BID). Compound 8 and Compound 26 were dosed at 10 mg/kg for 21 days. Compound 38 was dosed at 10 mg/kg for 10 days. The known BRAF inhibitor encorafenib was used as a positive control. encorafenib was administered from day 1 and dosed p.o. daily (QD) for 21 days and dosed at 35 mg/kg.
The A375 tumor cells were maintained in vitro in DMEM medium supplemented with […] and 1% Penicillin-Streptomycin at 37° C. in an atmosphere of 5% CO2 in air. The tumor cells were routinely subcultured twice weekly. The cells growing in an exponential growth phase were harvested and counted for tumor inoculation.
Each mouse was inoculated subcutaneously at the right flank with A375 cells (5×10^6) in 0.2 mL of PBS supplemented with Matrigel (PBS:Matrigel=1:1) for tumor development. Animals were grouped for treatment 16 days after tumor inoculation when the average tumor volume reached 234 mm^3 for efficacy study and 382 mm^3 for PKPD study. The test articles administration and the animal numbers in each group are shown in the above experimental tables.
Prior to the onset of drug treatment, mice were measured for tumor size in two dimensions using a caliper, and the tumor volume (mm^3) was calculated using formula V=0.5 a×b^2 where a and b are the long and short diameters of the tumor in mm, respectively. Mice were randomized into different treatment groups based on the tumor volume.
The major endpoint was to see if the tumor growth could be delayed or mice could be cured. The tumor size was then used for calculations of T/C value. The T/C value (in percent) is an indication of antitumor effectiveness; T and C are the mean volumes of the treated and control groups, respectively on specified day.
TGI was calculated for each group using the formula: TGI (%)=[1−(Ti−T0)/(Ci−C0)]×100; Ti is the average tumor volume of a treatment group on a given day, T0 is the average tumor volume of the treatment group on the day of treatment start, Ci is the average tumor volume of the vehicle control group on the same day with Ti, and C0 is the average tumor volume of the vehicle group on the day of treatment start.

[4] = liver, read-out: Mean Concentration in Liver
[5] = plasma, read-out: Mean Concentration in Plasma
[6] = tumor, read-out: Mean Concentration in Tumor

concentration at 6 h ([1]; liver, read-out: Concentration in Liver (mean ± SEM)): 195 ± 32.1 ng/g
concentration at 6 h ([1]; plasma, read-out: Concentration in Plasma (mean ± SEM)): 80.5 ± 17.3 ng/mL
concentration at 6 h [2, 4]: 1010 ± 111 ng/g
concentration at 12 h [2, 4]: 277 ± 125 ng/g
concentration at 1 h [2, 5]: 5920 ± 2380 ng/mL
concentration at 6 h [2, 5]: 259 ± 45.4 ng/mL
concentration at 12 h [2, 5]: 88.7 ± 42.7 ng/mL
concentration at 24 h [2, 5]: 1.09 ± 0.467 ng/mL
concentration at 1 h [2, 6]: 4920 ± 1490 ng/g
concentration at 6 h [2, 6]: 237 ± 4.91 ng/g
concentration at 12 h [2, 6]: 54 ± 13.5 ng/g
concentration at 24 h [2, 6]: 1.87 ± 0.9 ng/g
Compound: CC(C)(C)c1nc(-c2cccc(NS(=O)(=O)c3c(F)cccc3F)c2F)c(-c2ccnc(N)n2)s1 [Dabrafenib, dabrafenib, reference compound]

Compound: COC(=O)N[C@@H](C)CNc1nccc(-c2cn(C(C)C)nc2-c2cc(Cl)cc(NS(C)(=O)=O)c2F)n1 [Encorafenib, encorafenib, reference compound]
T/C ([3]; PG-D21): 14.94%
TGI ([3]; PG-D21): 98.67%
Tumor Size on PG-D21 (Mean ± SEM) ([3]; PG-D21): 254 ± 19 mm^3
Tumor Volume (mean ± SEM) ([3]; day 0): 234 ± 6 mm^3
Tumor Volume (mean ± SEM) ([3]; day 3): 329 ± 17 mm^3
Tumor Volume (mean ± SEM) ([3]; day 6): 347 ± 21 mm^3
Tumor Volume (mean ± SEM) ([3]; day 9): 251 ± 20 mm^3
Tumor Volume (mean ± SEM) ([3]; day 13): 194 ± 16 mm^3
Tumor Volume (mean ± SEM) ([3]; day 17): 194 ± 15 mm^3
Tumor Volume (mean ± SEM) ([3]; day 21): 254 ± 19 mm^3
